Measured values from US20110262556A1, “SILVER/WATER, SILVER GELS AND SILVER-BASED COMPOSITIONS; AND METHODS FOR MAKING AND USING THE SAME” (AMERICAN SILVER, LLC, priority 2005, published 2011).
In brackets after ≈: the same amount, converted by molar mass. Where two headings read alike, the source gives them in different places.

Legend:
MRSA clinical isolate = experiment: MIC, macrodilution broth
E. coil = experiment: Zone of inhibition, agar well; conditions: E.coli; antibiotic amount (5-200 mcg)
S.typhi = experiment: Zone of inhibition, agar well; conditions: antibiotic amount (5-200 mcg)
[1] = test system: Escherichia coli MDR clinical isolate (stool); experiment: Antibiotic sensitivity, Kirby Bauer; conditions: E.c; Kirby-Bauer antibiotic disc
[2] = test system: Pseudomonas aeruginosa MDR clinical isolate (sputum); experiment: Antibiotic sensitivity, Kirby Bauer
[3] = test system: MRSA clinical isolate (pus); experiment: Antibiotic sensitivity, Kirby Bauer; conditions: Kirby-Bauer antibiotic disc
S. pyogenes = experiment: MIC/MBC broth microdilution; assay type: cell-based, Streptococcus pyogenes
S. mutans = experiment: MIC/MBC broth microdilution; assay type: cell-based, Streptococcus mutans
S gordonii = experiment: MIC/MBC broth microdilution; assay type: cell-based, Streptococcus gordonii
S. pneumoniae = experiment: MIC/MBC broth microdilution; assay type: cell-based
S. faecalis = experiment: MIC/MBC broth microdilution; assay type: cell-based, Streptococcus faecalis
S. aureus = experiment: MIC/MBC broth microdilution; assay type: cell-based, Staphylococcus aureus
P. aeruginosa = experiment: MIC/MBC broth microdilution; assay type: cell-based, Pseudomonas aeruginosa
E. coli = experiment: MIC/MBC broth microdilution; assay type: cell-based, Escherichia coli
E. aerogenes = experiment: MIC/MBC broth microdilution; assay type: cell-based, Enterobacter aerogenes; conditions: E. aerogenes
S. typhimurium = experiment: MIC/MBC broth microdilution; assay type: cell-based; conditions: S. typhimurium
S arizona = experiment: MIC/MBC broth microdilution; assay type: cell-based, Salmonella arizona
S. boydii = experiment: MIC/MBC broth microdilution; assay type: cell-based, Shigella boydii; conditions: S. boydii
K. pneumoniae = experiment: MIC/MBC broth microdilution; assay type: cell-based, Klebsiella pneumoniae
K. oxytoca = experiment: MIC/MBC broth microdilution; assay type: cell-based; conditions: K. oxytoca
Ps. Aeruginosa = experiment: Zone of inhibition, agar well; conditions: antibiotic amount (5-200 mcg)
B. subtilis = experiment: Zone of inhibition, agar well; conditions: antibiotic amount (1-200 mcg)
MRSA 1 = experiment: Zone of inhibition, agar well; conditions: antibiotic amount (1-200 mcg)
MRSA 2 = experiment: Zone of inhibition, agar well; conditions: antibiotic amount (1-200 mcg)
S. aureus ATCC 6538 P = experiment: Zone of inhibition, agar well; conditions: antibiotic amount (1-200 mcg)
E. cloacae = experiment: MIC/MBC broth microdilution; assay type: cell-based; conditions: Enterobacter cloacae, read-out: MIC

`NCC[C@H](O)C(=O)N[C@@H]1C[C@H](N)[C@@H](O[C@H]2O[C@H](CN)[C@@H](O)[C@H](O)[C@H]2O)[C@H](O)[C@H]1O[C@H]1O[C@H](CO)[C@@H](O)[C@H](N)[C@H]1O` [Amikacin] was tested, and the Growth (MRSA clinical isolate; Conc. 0.2 mcg/ml) was “+”, the Growth (MRSA clinical isolate; Conc. 0.4 mcg/ml) was “+” and the Growth (MRSA clinical isolate; Conc. 0.6 mcg/ml) was “+”. The Growth (MRSA clinical isolate; Conc. 0.8 mcg/ml) was “−”, the Growth (MRSA clinical isolate; Conc. 1 mcg/ml) was “−” and the Growth (MRSA clinical isolate; Conc. 2 mcg/ml) was “−”. For the same compound, the Growth (MRSA clinical isolate; Conc. 3 mcg/ml) was “−”, the Growth (MRSA clinical isolate; Conc. 4 mcg/ml) was “−” and the Growth (MRSA clinical isolate; Conc. 5 mcg/ml) was “−”. The MIC (MRSA clinical isolate; Staphylococcus aureus, Nutrient Broth) was 0.8 µg/mL (≈ 1.37 µM), the “zone of inhibition, antibiotics” value (E. coil) was “Clear” and the “zone of inhibition, antibiotics” value (S.typhi) was “Clear”. For the same compound, the “Zone size (mm)” value [1] was 20 mm, the “Zone size (mm)” value ([2]; Ps., Kirby-Bauer antibiotic disc) was 9 mm and the resistance of isolate ([2]; gram-negative isolate Pseudomonas) was “resistant”. The “Zone size (mm)” value [3] was 22 mm.
Compound `CCN1CCN(C(=O)N[C@@H](C(=O)N[C@@H]2C(=O)N3C(C(=O)O)=C(CSc4nnnn4C)CS[C@H]23)c2ccc(O)cc2)C(=O)C1=O` [Cefaperazon] has an MBC (S. pyogenes) of 1.25 ppm, an MIC (S. pyogenes) of 0.313 ppm and an MBC (S. mutans) of over 5 ppm. The MIC (S. mutans) was 1.25 ppm, the MBC (S gordonii; S gordonii) was 1.25/1.25 ppm and the MIC (S gordonii; S gordonii) was 1.25/1.25 ppm. The MBC (S. pneumoniae) was 0.313/0.313 ppm, the MIC (S. pneumoniae) was 0.313/0.313 ppm and the MIC (S. faecalis) was over 5.0 ppm. The MBC (S. aureus) was 5.0/5.0 ppm, the MIC (S. aureus) was 5.0/5.0 ppm and the MBC (P. aeruginosa) was 5.0 ppm. For the same compound, the MIC (P. aeruginosa) was 2.5 ppm, the MBC (E. coli) was over 5.0 ppm and the MIC (E. coli) was 0.625 ppm. The MBC (E. aerogenes) was over 5.0 ppm, the MIC (E. aerogenes) was 2.92 ppm and the MBC (S. typhimurium) was 2.5 ppm. The MIC (S. typhimurium) was 1.25 ppm, the MBC (S arizona) was over 5.0 ppm and the MIC (S arizona) was 0.833 ppm. The MBC (S. boydii) was 0.625/0.625 ppm, the MIC (S. boydii) was 0.625/0.625 ppm and the MIC (K. pneumoniae) was over 5.0 ppm. The MBC (K. oxytoca) was over 5.0 ppm and the MIC (K. oxytoca) was 1.25 ppm.
In the case of `CO/N=C(\C(=O)N[C@@H]1C(=O)N2C(C(=O)O)=CCS[C@H]12)c1csc(N)n1` [Ceftizoxime], the “zone of inhibition, antibiotics” value (E. coil) is reported as 18 mm, the “zone of inhibition, antibiotics” value (Ps. Aeruginosa) is reported as “No inhibition” and the “zone of inhibition, antibiotics” value (S.typhi) is reported as 15 mm.
For `CC1=C(C(=O)O)N2C(=O)[C@@H](NC(=O)[C@H](N)c3ccccc3)[C@H]2SC1` [Cephalexin], the “zone of inhibition, antibiotics” value (B. subtilis) was “Clear”, the “zone of inhibition, antibiotics” value (MRSA 1) was 1.0 mm and the “zone of inhibition, antibiotics” value (MRSA 2) was 0.8 mm. For the same compound, the “zone of inhibition, antibiotics” value (S. aureus ATCC 6538 P) was “Clear”.
For `O=C(N[C@H](CO)[C@H](O)c1ccc([N+](=O)[O-])cc1)C(Cl)Cl` [Chloramphenicol], the “zone of inhibition, antibiotics” value (E. coil) was 22 mm, the “zone of inhibition, antibiotics” value (Ps. Aeruginosa) was “No inhibition” and the “zone of inhibition, antibiotics” value (S.typhi) was 23 mm.
In the case of `CC[C@H]1OC(=O)[C@H](C)[C@@H](O[C@H]2C[C@@](C)(OC)[C@@H](O)[C@H](C)O2)[C@H](C)[C@@H](O[C@@H]2O[C@H](C)C[C@H](N(C)C)[C@H]2O)[C@](C)(O)C[C@@H](C)C(=O)[C@H](C)[C@@H](O)[C@]1(C)O` [Erythromycin], the MBC (S. pyogenes; Streptococcus pyogenes, read-out: MBC) is reported as 0.019 µg/mL (≈ 0.0259 µM), the MIC (S. pyogenes; Streptococcus pyogenes, read-out: MIC) is reported as 0.003 µg/mL (≈ 0.00409 µM) and the MBC (S. mutans; Streptococcus mutans, read-out: MBC) is reported as 0.019 µg/mL (≈ 0.0259 µM). It also gave an MIC (S. mutans; Streptococcus mutans, read-out: MIC) of 0.009 µg/mL (≈ 0.0123 µM), an MBC (S gordonii; Streptococcus gordonii, read-out: MBC) of 0.019 µg/mL (≈ 0.0259 µM) and an MIC (S gordonii; Streptococcus gordonii, read-out: MIC) of 0.005 µg/mL (≈ 0.00681 µM). It also gave an MBC (S. pneumoniae; Streptococcus pneumoniae, read-out: MBC) of 0.004 µg/mL (≈ 0.00545 µM), an MIC (S. pneumoniae; Streptococcus pneumoniae, read-out: MIC) of 0.002 µg/mL (≈ 0.00273 µM) and an MBC (S. faecalis; Enterococcus faecalis, read-out: MBC) of 1.25 µg/mL (≈ 1.7 µM). It also gave an MIC (S. faecalis; Enterococcus faecalis, read-out: MIC) of 0.009 µg/mL (≈ 0.0123 µM), an MBC (S. aureus; Staphylococcus aureus, read-out: MBC) of over 5 µg/mL and an MIC (S. aureus; Staphylococcus aureus, read-out: MIC) of 0.039 µg/mL (≈ 0.0531 µM). For the same compound, the MBC (P. aeruginosa; Pseudomonas aeruginosa, read-out: MBC) was over 5 µg/mL, the MIC (P. aeruginosa; Pseudomonas aeruginosa, read-out: MIC) was 2.5 µg/mL (≈ 3.41 µM) and the MBC (E. coli; Escherichia coli, read-out: MBC) was over 5 µg/mL. For the same compound, the MIC (E. coli; Escherichia coli, read-out: MIC) was 5 µg/mL (≈ 6.81 µM), the MIC (E. aerogenes; Klebsiella aerogenes, read-out: MIC) was over 5 µg/mL and the MIC (E. cloacae) was over 5 µg/mL. The MBC (S. typhimurium; Salmonella enterica, read-out: MBC) was over 5 µg/mL, the MIC (S. typhimurium; Salmonella enterica, read-out: MIC) was 5 µg/mL (≈ 6.81 µM) and the MBC (S arizona; Salmonella, read-out: MBC) was over 5 µg/mL. The MIC (S arizona; Salmonella, read-out: MIC) was 4.17 µg/mL (≈ 5.68 µM), the MBC (S. boydii; Shigella boydii, read-out: MBC) was over 5 µg/mL and the MIC (S. boydii; Shigella boydii, read-out: MIC) was 5 µg/mL (≈ 6.81 µM). The MIC (K. pneumoniae; Klebsiella pneumoniae, read-out: MIC) was over 5 µg/mL and the MIC (K. oxytoca; Klebsiella oxytoca, read-out: MIC) was over 5 µg/mL.
